Assays:
[1] = tested on: nascent RNA (Pol II transcription rate) of AGO5, SUC5 and downstream nontarget genes; assay: Nuclear run-on assay with or without FLA (flavopiridol) treatment; set-up: species or system Arabidopsis; conditions: for NRO-qPCR, AT1G71900 / NRO-qPCR, AT2G27900 / NRO-qPCR, FT / NRO-qPCR, SUC5 / NRO-qPCR, AGO5: Figure 7c
Experimental: FLA treatment assay was performed as previous report. In brief, 2-week-old seedlings were collected and incubated with 200 μM FLA or mock solution (DMSO) overnight. The treated seedlings were subjected to total RNA extraction.
Nuclear run-on assay was performed as previous report with minor changes. In brief, after nuclei isolation with buffer (0.25 M sucrose, 15 mM PIPES pH 6.8, 5 mM MgCl2, 60 mM KCl, 15 mM NaCl, 1 mM CaCl2, 0.9% Triton X-100, and protease inhibitor cocktail), the nuclear pellet was resuspended with nuclei storage buffer (50 mM Tris-HCl pH 8, 0.1 mM EDTA, 5 mM MgCl2 and 40% glycerol) and mixed with transcription buffer (10 mM Tris-HCl, pH 8, 2.5 mM MgCl2, 150 mM KCl, 2 mM DTT, 80 units RNase inhibitor, 0.5 mM BrUTP, 1 mM ATP, 1 mM GTP, 1 mM CTP, 0.5 mM UTP, and 0.2% sarkosyl). After incubation at 30 °C for 15 min, the run-on reaction was stopped by adding Trizol reagent (Thermo). The nuclear RNAs were extracted and treated with DNase. The DNA-free RNAs were then inoculated with 2 μg anti-BrdU antibody (abcam) at room temperature for 30 min and precipitated by Dynabeads (Thermo). After two times washing, RNAs were extracted using Trizol reagent (Thermo). cDNAs were synthesized using SuperScript IV Reverse Transcriptase (Thermo) and subjected to qPCR analysis.

CDK kinases = conditions: cited from earlier work

SMILES: CN1CC[C@H](c2c(O)cc(O)c3c(=O)cc(-c4ccccc4Cl)oc23)[C@H](O)C1 [FLA, flavopiridol]
- nascent RNA levels upon FLA treatment (in words) ([1]; 200 μM FLA overnight, 2-week-old seedlings, AGO5, SUC5 and downstream nontarget genes, BrUTP run-on, qPCR, normalized to 18 S rRNA, three biological repeats): greatly reduced
- difference of nascent RNA levels between genotypes upon FLA treatment (in words) ([1]; 200 μM FLA overnight, Fig. 7c, three biological repeats): no obvious changes were observed between different genotypes
- NRO-qPCR, AT1G71900 ([1]; Col-0 FLA, Repeat 1): 2e-5
- NRO-qPCR, AT2G27900 ([1]; Col-0 FLA, Repeat 1): 4.5e-5
- NRO-qPCR, FT ([1]; Col-0 FLA, Repeat 1): 2e-6
- NRO-qPCR, SUC5 ([1]; Col-0 FLA, Repeat 1): 2e-6
- NRO-qPCR, AT1G71900 ([1]; Col-0 FLA, Repeat 2): 1.6e-5
- NRO-qPCR, AT2G27900 ([1]; Col-0 FLA, Repeat 2): 1.8e-5
- NRO-qPCR, FT ([1]; Col-0 FLA, Repeat 2): 2e-6
- NRO-qPCR, SUC5 ([1]; Col-0 FLA, Repeat 2): 1.2e-5
- NRO-qPCR, AT1G71900 ([1]; Col-0 FLA, Repeat 3): 2e-6
- NRO-qPCR, AT2G27900 ([1]; Col-0 FLA, Repeat 3): 4.7e-5
- NRO-qPCR, SUC5 ([1]; Col-0 FLA, Repeat 3): 5e-6
- NRO-qPCR, AGO5 ([1]; aipp2/paipp2 FLA, Repeat 1): 1.35e-7
- NRO-qPCR, AT1G71900 ([1]; aipp2/paipp2 FLA, Repeat 1): 1e-5
- NRO-qPCR, AT2G27900 ([1]; aipp2/paipp2 FLA, Repeat 1): 3.1e-5
- NRO-qPCR, FT ([1]; aipp2/paipp2 FLA, Repeat 1): 5e-6
- NRO-qPCR, SUC5 ([1]; aipp2/paipp2 FLA, Repeat 1): 1.1e-5
- NRO-qPCR, AT1G71900 ([1]; aipp2/paipp2 FLA, Repeat 2): 1.3e-5
- NRO-qPCR, AT2G27900 ([1]; aipp2/paipp2 FLA, Repeat 2): 2.6e-5
- NRO-qPCR, FT ([1]; aipp2/paipp2 FLA, Repeat 2): 4e-6
- NRO-qPCR, SUC5 ([1]; aipp2/paipp2 FLA, Repeat 2): 1.2e-5
- NRO-qPCR, AGO5 ([1]; aipp2/paipp2 FLA, Repeat 3): 2.05e-6
- NRO-qPCR, AT2G27900 ([1]; aipp2/paipp2 FLA, Repeat 3): 2.3e-5
- NRO-qPCR, AT1G71900 ([1]; aipp3 FLA, Repeat 1): 1.1e-5
- NRO-qPCR, AT2G27900 ([1]; aipp3 FLA, Repeat 1): 1.5e-5
- NRO-qPCR, FT ([1]; aipp3 FLA, Repeat 1): 3e-6
- NRO-qPCR, SUC5 ([1]; aipp3 FLA, Repeat 1): 2e-6
- NRO-qPCR, AT1G71900 ([1]; aipp3 FLA, Repeat 2): 1e-5
- NRO-qPCR, AT2G27900 ([1]; aipp3 FLA, Repeat 2): 5e-5
- NRO-qPCR, FT ([1]; aipp3 FLA, Repeat 2): 1e-6
- NRO-qPCR, SUC5 ([1]; aipp3 FLA, Repeat 2): 2e-6
- NRO-qPCR, AT1G71900 ([1]; aipp3 FLA, Repeat 3): 1e-5
- NRO-qPCR, AT2G27900 ([1]; aipp3 FLA, Repeat 3): 7.2e-5
- NRO-qPCR, SUC5 ([1]; aipp3 FLA, Repeat 3): 1e-6
- NRO-qPCR, AGO5 ([1]; cpl2 FLA, Repeat 1): 1.31e-6
- NRO-qPCR, AT1G71900 ([1]; cpl2 FLA, Repeat 1): 2e-6
- NRO-qPCR, AT2G27900 ([1]; cpl2 FLA, Repeat 1): 1.6e-5
- NRO-qPCR, FT ([1]; cpl2 FLA, Repeat 1): 1e-6
- NRO-qPCR, SUC5 ([1]; cpl2 FLA, Repeat 1): 1e-5
- NRO-qPCR, AGO5 ([1]; cpl2 FLA, Repeat 2): 5.33e-7
- NRO-qPCR, AT1G71900 ([1]; cpl2 FLA, Repeat 2): 2e-6
- NRO-qPCR, AT2G27900 ([1]; cpl2 FLA, Repeat 2): 2.7e-5
- NRO-qPCR, FT ([1]; cpl2 FLA, Repeat 2): 2e-6
- NRO-qPCR, SUC5 ([1]; cpl2 FLA, Repeat 2): 7e-6
- NRO-qPCR, AT2G27900 ([1]; cpl2 FLA, Repeat 3): 1.1e-5
- NRO-qPCR, FT ([1]; cpl2 FLA, Repeat 3): 1e-6
- NRO-qPCR, SUC5 ([1]; cpl2 FLA, Repeat 3): 8e-6
- reduction of Pol II CTD phosphorylation (in words) (CDK kinases): reduce the phosphorylation of Pol II CTD by inhibiting the activity of CDK kinases
